In one experiment the test system is 4T1. Put plainly: MTT anti-proliferative assay on 4T1. Type of experiment: cell-based, mouse. As to the method: (§1) All synthesized molecules were tested for their anticancer activity using the MTT assay protocol against the murine mammary carcinoma cell line (4T1), the human breast cancer (MCF-7), and the prostatic small cell carcinoma (PC-3). These compounds were then assessed for their IC50 determination at various concentrations. According to this finding, all synthesized compounds have the ability to inhibit the proliferation of a variety of cancer cell lines. […] It is more biased for MCF-7 cells over other cancer cells tested. Further, we contemplated conducting additional research to assess their anti-cancer effectiveness and mechanism (Fig. 3).
(§2) The mouse triple-negative breast cancer cell line (4T1), a human luminal A breast cancer cell line (MCF-7), a human prostate cancer cell line (PC-3), and a normal human embryonic kidney cell line (HEK-293) were procured from the National Center for Cell Science (NCCS, Pune, India). Dulbecco's Modified Eagle Medium (DMEM) (Himedia Laboratories Pvt Ltd, Mumbai, India) was used to cultivate MCF-7, 4T1, PC-3, and HEK-293 cells. All the mentioned cell lines were cultured in Dulbecco's Modified Eagle Medium (DMEM) supplemented with 10% heat-inactivated fetal bovine serum (Himedia Laboratories Pvt Ltd, Mumbai, India) and 1% antibiotic (Pen strep: A001), Himedia Laboratories Pvt Ltd, Mumbai, India. Cells were grown in a humidified environment with 5% CO2 at 37 °C. The experiment was performed using the yellow dye MTT [3-(4,5-dimethylthiazol-2-yl)-2, 5-diphenyltetrazolium bromide].
(§3) The MTT assay protocol was used to determine the IC50 values of the final compounds against different types of cancer cell lines and their selectivity over normal human cell lines. Dilutions of various concentrations were made from the compounds' DMSO stock solutions in the appropriate media. With a control solution of less than 1% DMSO in the appropriate media, dilutions from 200 μM to 0.781 μM concentrations were prepared using the serial dilution method. Cells were subcultured in their respective complete media according to the ATCC protocol before being seeded on a sterile 96-well plate with around 100 μL per well and a cell density of about 1 × 10^4 cells per well and incubated overnight. The medium was aspirated the following day, and adherent cells were treated with the respective concentrations 200 μM to 0.781 μM. The cells were then cultured for 48 hours in presence of compounds in the growth medium. The medium was aspirated post-treatment, and 100 μL of a 5 mg mL^−1 MTT solution in phenol red-free media was added. This mixture was then incubated for around 3 hours to check for the production of formazan crystals. The MTT solution was withdrawn, and 150 μL of DMSO was added to the wells to dissolve the generated crystals. The absorbance was measured at 570 nm and 650 nm. The percent cell viability was calculated for the IC50 values using GraphPad Prism™ version 8.0.1, and the results were shown as a dose–response curve.
(Tetrazolium dyes change colour on reduction, which living cells bring about.)

In a further experiment the test system is PC-3. The experiment is described as follows: MTT anti-proliferative assay on PC-3. Type of experiment: cell-based, human. Here is the method: as §1, §2, §3
A further experiment relates to HEK-293. The experiment is described as follows: MTT cytotoxicity on normal HEK-293 cells. Type of experiment: cell-based. Particulars: Homo sapiens, HEK293, normal cell line, 48 hours treatment, mean ± SD (n = 2).
Description: We also investigated their in vitro cytotoxicity against a normal human embryonic kidney (HEK-293) cell line to determine their IC50.
as §2, §3

In experiment [1] the test system is MCF-7 cells. Put plainly: Intracellular ROS generation (DCFH-DA). Format: cell-based, human. The text has this:
This can result from the increased metabolic demands of rapidly dividing cancer cells and mitochondrial dysfunction. Elevated ROS levels can also damage DNA, contributing to genomic instability and the development of genetic mutations that drive cancer progression. Chemotherapy drugs, for example, can generate ROS as a byproduct of their mechanism of action, causing increase DNA damage and cell death in cancer cells. As a result, we investigated whether the compound 2g could cause ROS production within cancer cells.
The generation of reactive oxygen species in MCF-7 cells was investigated using the 2-7-dichlorodihydroflourescein diacetate (DCFH-DA) assay. The non-fluorescent DCFH-DA enters the cells, where cellular esterase cleaves off the acetyl groups to produce DCFH. ROS transform the molecule from DCFH to DCF, which produces green light. […] Following incubation, old medium was removed, and cells were treated with 10 μM DCFH-DA (S0033-Beyotime) in accordance with the recommended technique for 10 min at 37 °C in complete darkness. The intensity of fluorescence was then measured with a Laser Scanning Confocal Microscope (LSCM) DMI8 (Leica Microsystems, Germany) at 63× magnification at 485 nm and 535 nm for excitation and emission wavelengths. […] In the meantime, the increase in fluorescence intensity was determined in comparison to the control. Image J was used to calculate the relative fluorescence intensity (%). One-way ANOVA was used to determine significance, and the graph was created in GraphPad Prism™ version 8.0.1.

Experiment [2] has as its system MCF-7 cells. The experiment is described as follows: Nuclear staining assay (DAPI and AO). Type of experiment: cell-based, human. Particulars: MCF-7, IC50, 48 hours, compared to control and BG-45. As to the method: A nuclear staining assay was done using DAPI and AO as staining dyes to evaluate the phenomena of apoptosis in cancer cells under a laser scanning confocal microscope (LSCM). […] The fluorescence pattern in AO staining changed from green (normal cellular DNA) to orange (nicked cellular DNA).
To measure the degree of cancer cell disintegration, a nuclear staining experiment was performed in MCF-7 cells using the lead compound 2g and the reference compound BG-45. […] The 12-well plate was incubated for 48 hours after treatment. The cells were fixed with 4% paraformaldehyde and then stained with DAPI and acridine orange. The degree of nuclear staining was examined using a Laser Scanning Confocal Microscope (LSCM) DMI8 (Leica Microsystems, Germany) at 63× magnification. Image J was used to calculate the percentage apoptosis. One-way ANOVA was used to determine significance, and the graph was plotted in GraphPad Prism™ version 8.0.1.

For `COc1ccc(-c2noc(-c3cccs3)c2C(F)(F)F)cc1OC` [Compound 2g, 3-(3,4-dimethoxyphenyl)-5-(thiophen-2-yl)-4-(trifluoromethyl)isoxazole], the IC50 (in general, the concentration that gives 50% inhibition) was determined as 8.75 ± 0.09 µM in the experiment on 4T1 (Mus musculus, 4T1, MTT, 48 hours treatment, mean ± SD (n = 2)); 7.16 ± 0.18 µM with PC-3 (Homo sapiens, PC-3, MTT, 48 hours treatment, mean ± SD (n = 2)); 81.2 ± 0.17 µM with HEK-293. Further, the “selectivity for other cancer cell lines over HEK-293” value with 4T1 (first value, fits 4T1 by ratio of Table 1 IC50) is on record as 9.2 fold; in the experiment on PC-3 (second value, fits PC-3 by ratio of Table 1 IC50) it was 11.3 fold. Further, the “Fluorescence intensity (DCFH-DA, ImageJ)” value with MCF-7 cells [1] (MCF-7, 48 h, IC50 dose) is listed as 31.63. Further, in the experiment on MCF-7 cells [1] (MCF-7, IC50 dose), the “relative fluorescence intensity compared to the control” value is reported as “considerable increase”. Besides, the “nuclear morphology by DAPI and AO staining” value in the experiment on MCF-7 cells [2] is “notable variation in cell shape and morphology”.

The record behind these values is article PMC11167338, “Exploring the impact of trifluoromethyl (–CF3) functional group on the anti-cancer activity of isoxazole-based molecules: design, synthesis, biological evaluation and molecular docking analysis” (RSC Advances, 2024).
